Here are results for twelve compounds from paper PMC7531004, “Discovery of gramicidin A analogues with altered activities by multidimensional screening of a one-bead-one-compound library” (Nature Communications, 2020).

Data set [1] can be described thus: H+/Na+ transport assay of bead-derived peptides (one-point).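 Further: relative to parent gramicidin A activity set to 1.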 It is filed as biochemical. Also noted: key: relative activity; mean of two control wells = 1.00. To be noted: bead-derived peptide solution, EYPC/EYPG LUVs. An outline of the steps:
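Pyranine (1.0 mM)-loaded LUVs containing egg yolk phosphatidylglycerol were prepared by film hydration, sonication and extrusion, then mixed with diluted bead-derived peptide in 96-well format and vortexed 30 min at room temperature. Fluorescence was normalized between untreated LUVs (0%) and Triton X-100 lysis (100%).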

Data set [2] relates to P388 mouse leukemia cells. The following applies: 92 h. The essentials:
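Peptide stocks diluted 250× in growth medium; P388 cells 1 × 10^4 cells/mL final; 37 °C, 5% CO2, 92 h. WST-1 + 1-methoxy PMS, 4 h, A415. Output: % viability.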

For data set [3], the system named is Streptococcus pyogenes SSI-9. The data set is described as follows: Antibacterial activity assay of bead-derived peptides (three concentrations). It is filed as cell-based. Details: key: +++: inhibition by the 640-fold diluted peptide solution; ++: inhibition by the 160-fold diluted solution; +: inhibition by the 40-fold diluted solution; -: no inhibition. The following applies: S. pyogenes, bead-derived peptide solution, three concentrations. The essentials:
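Growth inhibition scored visually as precipitated bacteria after 37 °C, 18 h incubation. Streptococcus pyogenes SSI-9 inoculum of 2 × 10^5 CFU in Ca2+/Mg2+-adjusted Mueller Hinton broth plus 5% laked horse blood; peptides tested at three levels: stock, 4-fold and 16-fold DMSO dilutions.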

Where a SMILES comes first, the peptide text is derived from it. [ ]: non-standard residue; d: D form. The star is where a group is joined. NHCH2CH2OH = OCCN*; For = O=C*

As to `CNC(=O)C[C@@H](NC(=O)[C@H](Cc1c[nH]c2ccccc12)NC(=O)[C@@H](CC(C)C)NC(=O)[C@@H](NC(=O)[C@@H](CC(C)C)NC(=O)[C@H](C)NC(=O)[C@H](NC(=O)[C@H](C)NC(=O)CNC(=O)[C@@H](NC=O)C(C)C)C(C)C)C(C)C)C(=O)N[C@@H](Cc1c[nH]c2ccccc12)C(=O)N[C@@H](C(=O)N[C@@H](Cc1c[nH]c2ccccc12)C(=O)N[C@@H](C(=O)N[C@@H](Cc1c[nH]c2ccccc12)C(=O)NCCO)C(C)C)C(C)C` [compound 3144] (For-VGA[dV]A[dL]V[dL]W[dD](NHMe)W[dV]W[dV]W-NHCH2CH2OH), in data set [1], the “H+/Na+ transport activity normalized against the value of 1 (1.00)” value (from here on “H+/Na+ transport activity normalized”) is 1.01. Also, the cell viability/% in data set [2] is listed as 100.0%. Moreover, the antibacterial activity result in data set [3] was “-”.
The matching figures for `CC(C)C[C@@H](NC(=O)[C@H](Cc1c[nH]c2ccccc12)NC(=O)[C@@H](CC(C)C)NC(=O)[C@H](Cc1c[nH]c2ccccc12)NC(=O)[C@@H](CC(C)C)NC(=O)[C@H](Cc1c[nH]c2ccccc12)NC(=O)[C@@H](CC(C)C)NC(=O)[C@@H](NC(=O)[C@H](NC(=O)[C@H](C)NC(=O)[C@H](NC(=O)[C@H](C)NC(=O)CNC(=O)[C@@H](NC=O)C(C)C)C(C)C)C(C)C)C(C)C)C(=O)N[C@@H](Cc1c[nH]c2ccccc12)C(=O)NCCO` [compound 3308] (For-VGA[dV]A[dV]V[dL]W[dL]W[dL]W[dL]W-NHCH2CH2OH): 1.15, 0.1% and “++”.
Turning to `CC(C)C[C@@H](NC(=O)[C@H](Cc1c[nH]c2ccccc12)NC(=O)[C@@H](CC(C)C)NC(=O)[C@H](Cc1c[nH]c2ccccc12)NC(=O)[C@@H](CC(C)C)NC(=O)[C@H](Cc1c[nH]c2ccccc12)NC(=O)[C@H](NC(=O)[C@@H](NC(=O)[C@H](NC(=O)[C@H](C)NC(=O)[C@H](NC(=O)[C@H](C)NC(=O)CNC(=O)[C@@H](NC=O)C(C)C)C(C)C)C(C)C)C(C)C)C(C)C)C(=O)N[C@@H](Cc1c[nH]c2ccccc12)C(=O)NCCO` [compound 3311] (For-VGA[dV]A[dV]V[dV]W[dL]W[dL]W[dL]W-NHCH2CH2OH), the “H+/Na+ transport activity normalized” value in data set [1] came to 1.14. In data set [2], this compound registered a cell viability/% of 3.3%. Further, the antibacterial activity result in data set [3] is reported as “++”.
Turning to `CC(C)C[C@@H](NC(=O)[C@H](C)NC(=O)CNC(=O)[C@@H](NC=O)C(C)C)C(=O)N[C@@H](C)C(=O)N[C@@H](C(=O)N[C@H](C(=O)N[C@@H](C(=O)N[C@@H](Cc1c[nH]c2ccccc12)C(=O)N[C@@H](C(=O)N[C@@H](Cc1c[nH]c2ccccc12)C(=O)N[C@H](CC(C)C)C(=O)N[C@@H](Cc1c[nH]c2ccccc12)C(=O)N[C@@H](C(=O)N[C@@H](Cc1c[nH]c2ccccc12)C(=O)NCCO)C(C)C)C(C)C)C(C)C)C(C)C)[C@H](C)O` [compound 3364] (For-VGA[dL]A[dT]V[dV]W[dV]W[dL]W[dV]W-NHCH2CH2OH), in data set [1], the “H+/Na+ transport activity normalized” value is recorded as 1.09. For the same compound, the cell viability/% in data set [2] amounted to 100.0%. Besides, the antibacterial activity entry in data set [3] is on record as “-”.
As for `CC(C)C[C@@H](NC(=O)[C@H](C)NC(=O)[C@H](NC(=O)[C@H](C)NC(=O)CNC(=O)[C@@H](NC=O)C(C)C)C(C)C)C(=O)N[C@H](C(=O)N[C@H](CC(C)C)C(=O)N[C@@H](Cc1c[nH]c2ccccc12)C(=O)N[C@H](CC(C)C)C(=O)N[C@@H](Cc1c[nH]c2ccccc12)C(=O)N[C@H](CC(C)C)C(=O)N[C@@H](Cc1c[nH]c2ccccc12)C(=O)N[C@@H](C(=O)N[C@@H](Cc1c[nH]c2ccccc12)C(=O)NCCO)[C@H](C)O)C(C)C` [compound 3365] (For-VGA[dV]A[dL]V[dL]W[dL]W[dL]W[dT]W-NHCH2CH2OH), the “H+/Na+ transport activity normalized” value in data set [1] is listed as 1.03. In addition, the cell viability/% in data set [2] was determined as 100.0%. The antibacterial activity entry in data set [3] is “+”.
For `CC(C)C[C@@H](NC(=O)[C@H](C)NC(=O)[C@H](NC(=O)[C@H](C)NC(=O)CNC(=O)[C@@H](NC=O)C(C)C)C(C)C)C(=O)N[C@H](C(=O)N[C@@H](C(=O)N[C@@H](Cc1c[nH]c2ccccc12)C(=O)N[C@H](CC(C)C)C(=O)N[C@@H](Cc1c[nH]c2ccccc12)C(=O)N[C@@H](C(=O)N[C@@H](Cc1c[nH]c2ccccc12)C(=O)N[C@@H](C(=O)N[C@@H](Cc1c[nH]c2ccccc12)C(=O)NCCO)C(C)C)C(C)C)[C@H](C)O)C(C)C` [compound 3375] (For-VGA[dV]A[dL]V[dT]W[dL]W[dV]W[dV]W-NHCH2CH2OH), the “H+/Na+ transport activity normalized” value in data set [1] was 1.29. Further, the cell viability/% in data set [2] is reported as 100.0%. Further, the antibacterial activity entry in data set [3] is reported as “-”.
The matching figures for `CC(C)C[C@@H](NC(=O)[C@H](C)NC(=O)[C@H](NC(=O)[C@H](C)NC(=O)CNC(=O)[C@@H](NC=O)C(C)C)[C@H](C)O)C(=O)N[C@H](C(=O)N[C@H](CC(C)C)C(=O)N[C@@H](Cc1c[nH]c2ccccc12)C(=O)N[C@@H](C(=O)N[C@@H](Cc1c[nH]c2ccccc12)C(=O)N[C@H](CC(C)C)C(=O)N[C@@H](Cc1c[nH]c2ccccc12)C(=O)N[C@@H](C(=O)N[C@@H](Cc1c[nH]c2ccccc12)C(=O)NCCO)C(C)C)[C@H](C)O)C(C)C` [compound 3437] (For-VGA[dT]A[dL]V[dL]W[dT]W[dL]W[dV]W-NHCH2CH2OH): 1.01, 100.0% and “-”.
For `CC(C)C[C@@H](NC(=O)[C@H](Cc1c[nH]c2ccccc12)NC(=O)[C@H](NC(=O)[C@H](Cc1c[nH]c2ccccc12)NC(=O)[C@@H](CC(C)C)NC(=O)[C@H](Cc1c[nH]c2ccccc12)NC(=O)[C@H](NC(=O)[C@@H](NC(=O)[C@H](NC(=O)[C@H](C)NC(=O)[C@H](NC(=O)[C@H](C)NC(=O)CNC(=O)[C@@H](NC=O)C(C)C)[C@H](C)O)C(C)C)C(C)C)C(C)C)C(C)C)C(=O)N[C@@H](Cc1c[nH]c2ccccc12)C(=O)NCCO` [compound 3548] (For-VGA[dT]A[dV]V[dV]W[dL]W[dV]W[dL]W-NHCH2CH2OH) the same measures were 1.16, 100.0% and “-”.
As to `CNC(=O)C[C@@H](NC(=O)[C@@H](NC(=O)[C@H](NC(=O)[C@H](C)NC(=O)[C@@H](CC(C)C)NC(=O)[C@H](C)NC(=O)CNC(=O)[C@@H](NC=O)C(C)C)C(C)C)C(C)C)C(=O)N[C@@H](Cc1c[nH]c2ccccc12)C(=O)N[C@@H](C(=O)N[C@@H](Cc1c[nH]c2ccccc12)C(=O)N[C@H](CC(C)C)C(=O)N[C@@H](Cc1c[nH]c2ccccc12)C(=O)N[C@H](CC(C)C)C(=O)N[C@@H](Cc1c[nH]c2ccccc12)C(=O)NCCO)C(C)C` [compound 3584] (For-VGA[dL]A[dV]V[dD](NHMe)W[dV]W[dL]W[dL]W-NHCH2CH2OH), the “H+/Na+ transport activity normalized” value in data set [1] was found to be 1.22. The cell viability/% in data set [2] is reported as 100.0%. Also, the antibacterial activity result in data set [3] is listed as “-”.
The matching figures for `CC(C)C[C@@H](NC(=O)[C@@H](NC(=O)[C@H](NC(=O)[C@H](C)NC(=O)[C@H](NC(=O)[C@H](C)NC(=O)CNC(=O)[C@@H](NC=O)C(C)C)[C@H](C)O)C(C)C)C(C)C)C(=O)N[C@@H](Cc1c[nH]c2ccccc12)C(=O)N[C@@H](C(=O)N[C@@H](Cc1c[nH]c2ccccc12)C(=O)N[C@@H](C(=O)N[C@@H](Cc1c[nH]c2ccccc12)C(=O)N[C@@H](C(=O)N[C@@H](Cc1c[nH]c2ccccc12)C(=O)NCCO)C(C)C)C(C)C)C(C)C` [compound 3631] (For-VGA[dT]A[dV]V[dL]W[dV]W[dV]W[dV]W-NHCH2CH2OH): 1.02, 100.0% and “-”.
In the case of `CC(C)C[C@@H](NC(=O)[C@H](C)NC(=O)CNC(=O)[C@@H](NC=O)C(C)C)C(=O)N[C@@H](C)C(=O)N[C@@H](C(=O)N[C@H](C(=O)N[C@H](CC(C)C)C(=O)N[C@@H](Cc1c[nH]c2ccccc12)C(=O)N[C@@H](C(=O)N[C@@H](Cc1c[nH]c2ccccc12)C(=O)N[C@H](CC(C)C)C(=O)N[C@@H](Cc1c[nH]c2ccccc12)C(=O)N[C@@H](C(=O)N[C@@H](Cc1c[nH]c2ccccc12)C(=O)NCCO)C(C)C)C(C)C)C(C)C)C(C)C` [compound 3633] (For-VGA[dL]A[dV]V[dL]W[dV]W[dL]W[dV]W-NHCH2CH2OH), the “H+/Na+ transport activity normalized” value in data set [1] is reported as 1.04. The compound also displayed a cell viability/% in data set [2] of 1.7%. In addition, the antibacterial activity entry in data set [3] is on record as “-”.
For `CC(C)C[C@@H](NC(=O)[C@H](C)NC(=O)CNC(=O)[C@@H](NC=O)C(C)C)C(=O)N[C@@H](C)C(=O)N[C@H](CC(C)C)C(=O)N[C@H](C(=O)N[C@@H](C(=O)N[C@@H](Cc1c[nH]c2ccccc12)C(=O)N[C@H](CC(C)C)C(=O)N[C@@H](Cc1c[nH]c2ccccc12)C(=O)N[C@@H](C(=O)N[C@@H](Cc1c[nH]c2ccccc12)C(=O)N[C@H](CC(C)C)C(=O)N[C@@H](Cc1c[nH]c2ccccc12)C(=O)NCCO)[C@H](C)O)[C@H](C)O)C(C)C` [compound 3780] (For-VGA[dL]A[dL]V[dT]W[dL]W[dT]W[dL]W-NHCH2CH2OH) the same measures were 1.16, 100.0% and “-”.
